Experimental data reported in patent US20110009482A1, “METHODS OF TREATING COPD” (Schering Corporation, priority 2007, published 2011).

Test: Pharmacokinetics after oral administration to a human
Conditions: in vivo
[1] = single-dose oral administration of 30 mg to a human

## CC[C@@H](Nc1c(Nc2cccc(C(=O)N(C)C)c2O)c(=O)c1=O)c1ccc(C)o1 [formula (1.0A)]
Oral administration to a human, read-out: median Tmax
  Tmax: 0.5 to 2 h
[1]
  AUC: 484 to 489 ng·h/mL
  Cmax: 122 to 147 ng/mL
